From US10941138B2, “Quinoline and isoquinoline derivatives for treating pain and pain related conditions” (ESTEVE PHARMACEUTICALS, S.A., priority 2016, dated 2021)

Target: human norepinephrine transporter (NET) (Homo sapiens (Human), UniProt P23975)
Test: Binding assay to human norepinephrine transporter (NET) ([3H]-Nisoxetin)
Conditions: Table 2, dual compounds, human NET enriched membranes, read-out: Ki (nM) NET Hum
Method: Binding Assay to Human Norepinephrine Transporter (NET).
Human norepinephrine transporter (NET) enriched membranes (5 μg) were incubated with 5 nM of radiolabeled [3H]-Nisoxetin in assay buffer containing 50 mM Tris-HCl, 120 mM NaCl, 5 mM KCl, pH 7.4.
(§1) NSB (non specific binding) was measured by adding desipramine 10 μM. The binding of the test compound was measured at five different concentrations. After 60 min incubation at 4° C., binding reaction was terminated by filtering through Multiscreen GF/C (Millipore) presoaked in 0.5% polyethyleneimine in Vacuum Manifold Station, followed by 3 washes with ice-cold filtration buffer containing 50 mM Tris-HCl, 0.9% NaCl, pH 7.4.
Filter plates were dried at 60° C. for 1 h and 30 μl of scintillation cocktail were added to each well before radioactivity reading.
(§2) Readings were performed in a Trilux 1450 Microbeta radioactive counter (Perkin Elmer).

Chain of human norepinephrine transporter (NET) (P23975 whole entry): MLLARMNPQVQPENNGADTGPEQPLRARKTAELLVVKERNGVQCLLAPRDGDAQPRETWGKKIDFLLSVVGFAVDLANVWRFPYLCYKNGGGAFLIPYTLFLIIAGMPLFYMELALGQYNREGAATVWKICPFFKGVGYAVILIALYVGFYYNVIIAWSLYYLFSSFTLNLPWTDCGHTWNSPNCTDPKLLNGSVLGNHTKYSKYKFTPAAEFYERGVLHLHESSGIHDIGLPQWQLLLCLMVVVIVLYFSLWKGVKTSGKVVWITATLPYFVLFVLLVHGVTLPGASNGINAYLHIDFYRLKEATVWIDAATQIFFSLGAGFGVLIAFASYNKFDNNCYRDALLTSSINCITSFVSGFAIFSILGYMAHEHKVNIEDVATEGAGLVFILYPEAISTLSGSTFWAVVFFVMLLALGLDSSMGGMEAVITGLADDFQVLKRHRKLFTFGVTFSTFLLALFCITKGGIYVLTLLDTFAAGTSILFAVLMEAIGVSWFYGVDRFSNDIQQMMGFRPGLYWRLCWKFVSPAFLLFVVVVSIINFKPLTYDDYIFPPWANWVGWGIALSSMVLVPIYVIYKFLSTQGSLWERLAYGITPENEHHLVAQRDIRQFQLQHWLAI

Row | Compound | Ki [nM]
1 | CNCC[C@H](Oc1cccc2ccncc12)c1cccs1 (stereo in doubt) [Example 12, 3-(isoquinolin-8-yloxy)-N-methyl-3-(thiophen-2-yl)propan-1-amine] | 100 to 500
2 | CNCCC(Oc1cccc2cccnc12)c1cccs1 (centres unmarked) [Example 1, N-Methyl-3-(quinolin-8-yloxy)-3-(thiophen-2-yl)propan-1-amine] | < 100
3 | CNCCC(Oc1cccc2ncccc12)c1cccs1 (centres unmarked) [Example 2, N-methyl-3-(quinolin-5-yloxy)-3-(thiophen-2-yl)propan-1-amine] | 100 to 500
4 | CNCCC(Oc1cccc2cnccc12)c1cccs1 (centres unmarked) [Example 3, 3-(isoquinolin-5-yloxy)-N-methyl-3-(thiophen-2-yl)propan-1-amine] | < 100
5 | CNCC[C@H](Oc1cccc2ncccc12)c1cccs1 [Example 9, (S)-N-methyl-3-(quinolin-5-yloxy)-3-(thiophen-2-yl)propan-1-amine] | 500 to 1000
6 | CNCC[C@H](Oc1cccc2ccncc12)c1cccs1 [Example 10, (S)-3-(isoquinolin-8-yloxy)-N-methyl-3-(thiophen-2-yl)propan-1-amine] | 500 to 1000
7 | CNCC[C@H](Oc1cccc2cnccc12)c1cccs1 [Example 11, (S)-3-(isoquinolin-5-yloxy)-N-methyl-3-(thiophen-2-yl)propan-1-amine] | < 100
8 | CNCC[C@@H](Oc1cccc2ccncc12)c1cccs1 [Example 13, (R)-3-(isoquinolin-8-yloxy)-N-methyl-3-(thiophen-2-yl)propan-1-amine] | 100 to 500

Target: human α2δ-1 subunit of Cav2.2 calcium channel (Homo sapiens (Human), UniProt P54289)
Test: Binding assay to human α2δ-1 subunit of Cav2.2 calcium channel ([3H]-Gabapentin)
Conditions: Table 1, human α2δ-1 enriched membranes, read-out: Ki (nM) alpha2delta Hum
Method: Binding Assay to Human α2δ-1 Subunit of Cav2.2 Calcium Channel.
Human α2δ-1 enriched membranes (2.5 μg) were incubated with 15 nM of radiolabeled [3H]-Gabapentin in assay buffer containing Hepes-KOH 10 mM, pH 7.4.
as §1, with “adding” for “adding desipramine”, “μM pregabalin.” for “μM.”, “27°” for “4°”, “Tris-HCl,” for “Tris-HCl, 0.9% NaCl,”, “7.4. Filter plates were dried at 60° C. for 1 h and 30 μl of scintillation cocktail were added to each well before radioactivity reading.” for “7.4.”
as §2

Chain of human α2δ-1 subunit of Cav2.2 calcium channel (P54289 25-1103): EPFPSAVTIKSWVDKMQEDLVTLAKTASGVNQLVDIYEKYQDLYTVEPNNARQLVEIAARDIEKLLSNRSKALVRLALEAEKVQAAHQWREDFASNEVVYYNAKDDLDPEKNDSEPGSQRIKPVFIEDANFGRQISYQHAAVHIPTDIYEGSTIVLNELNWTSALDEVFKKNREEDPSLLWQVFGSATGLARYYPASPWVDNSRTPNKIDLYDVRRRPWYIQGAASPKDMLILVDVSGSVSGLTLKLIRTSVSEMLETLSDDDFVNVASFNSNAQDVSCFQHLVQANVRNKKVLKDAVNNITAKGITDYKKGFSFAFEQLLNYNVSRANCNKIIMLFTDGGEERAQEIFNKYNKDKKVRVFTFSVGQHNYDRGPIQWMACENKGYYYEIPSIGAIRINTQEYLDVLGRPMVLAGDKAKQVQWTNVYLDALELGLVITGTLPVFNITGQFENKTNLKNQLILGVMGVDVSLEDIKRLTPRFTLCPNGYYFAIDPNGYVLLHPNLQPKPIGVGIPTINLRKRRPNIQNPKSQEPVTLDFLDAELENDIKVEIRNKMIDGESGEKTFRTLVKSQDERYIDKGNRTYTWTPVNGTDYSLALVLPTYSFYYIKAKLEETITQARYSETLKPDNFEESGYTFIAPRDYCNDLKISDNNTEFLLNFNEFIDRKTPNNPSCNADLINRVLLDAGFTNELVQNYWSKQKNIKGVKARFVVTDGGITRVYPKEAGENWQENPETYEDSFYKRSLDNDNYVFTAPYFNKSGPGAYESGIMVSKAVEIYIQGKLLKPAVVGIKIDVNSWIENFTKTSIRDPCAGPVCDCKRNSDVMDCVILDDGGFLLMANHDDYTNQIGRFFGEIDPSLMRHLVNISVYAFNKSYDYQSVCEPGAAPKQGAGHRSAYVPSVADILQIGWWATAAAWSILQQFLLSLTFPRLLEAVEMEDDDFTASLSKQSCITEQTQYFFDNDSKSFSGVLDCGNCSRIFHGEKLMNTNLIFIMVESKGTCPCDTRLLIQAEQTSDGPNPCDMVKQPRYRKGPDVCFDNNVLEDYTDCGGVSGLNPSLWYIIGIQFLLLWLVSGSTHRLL

Row | Compound | Ki [nM]
9 | CNCC[C@H](Oc1cccc2ccncc12)c1cccs1 (stereo in doubt) [Example 12, 3-(isoquinolin-8-yloxy)-N-methyl-3-(thiophen-2-yl)propan-1-amine] | 100 to 500
10 | CNCCC(Oc1cccc2cccnc12)c1cccs1 (centres unmarked) [Example 1, N-Methyl-3-(quinolin-8-yloxy)-3-(thiophen-2-yl)propan-1-amine] | ≥ 3000
11 | CNCCC(Oc1cccc2ncccc12)c1cccs1 (centres unmarked) [Example 2, N-methyl-3-(quinolin-5-yloxy)-3-(thiophen-2-yl)propan-1-amine] | 100 to 500
12 | CNCCC(Oc1cccc2cnccc12)c1cccs1 (centres unmarked) [Example 3, 3-(isoquinolin-5-yloxy)-N-methyl-3-(thiophen-2-yl)propan-1-amine] | 100 to 500
13 | CNCC[C@H](Oc1cccc2ncccc12)c1cccs1 [Example 9, (S)-N-methyl-3-(quinolin-5-yloxy)-3-(thiophen-2-yl)propan-1-amine] | < 100
14 | CNCC[C@H](Oc1cccc2ccncc12)c1cccs1 [Example 10, (S)-3-(isoquinolin-8-yloxy)-N-methyl-3-(thiophen-2-yl)propan-1-amine] | ≥ 3000
15 | CNCC[C@H](Oc1cccc2cnccc12)c1cccs1 [Example 11, (S)-3-(isoquinolin-5-yloxy)-N-methyl-3-(thiophen-2-yl)propan-1-amine] | ≥ 3000
16 | CNCC[C@@H](Oc1cccc2ccncc12)c1cccs1 [Example 13, (R)-3-(isoquinolin-8-yloxy)-N-methyl-3-(thiophen-2-yl)propan-1-amine] | 100 to 500
17 | CNCCC(Oc1cccc2ncccc12)c1ccncc1 (centres unmarked) [Example 35, N-methyl-3-(pyridin-4-yl)-3-(quinolin-5-yloxy)propan-1-amine] | ≥ 3000
18 | CNCCC(Oc1cccc2ncccc12)c1cccnc1 (centres unmarked) [Example 36, N-methyl-3-(pyridin-3-yl)-3-(quinolin-5-yloxy)propan-1-amine] | ≥ 3000
19 | CNCCC(Oc1cccc2cnccc12)c1cccc(C(F)(F)F)n1 (centres unmarked) [Example 37, 3-(isoquinolin-5-yloxy)-N-methyl-3-(6-(trifluoromethyl)pyridin-2-yl)propan-1-amine] | ≥ 3000
20 | CNCCC(Oc1cccc2ncccc12)c1cccc(C(F)(F)F)n1 (centres unmarked) [Example 38, N-methyl-3-(quinolin-5-yloxy)-3-(6-(trifluoromethyl)pyridin-2-yl)propan-1-amine] | ≥ 3000
21 | CNCCC(Oc1cccc2ccncc12)c1ccc(C(F)(F)F)nc1 (centres unmarked) [Example 39, 3-(isoquinolin-8-yloxy)-N-methyl-3-(6-(trifluoromethyl)pyridin-3-yl)propan-1-amine] | ≥ 3000
22 | CNCCC(Oc1cccc2ncccc12)c1ccc(C(F)(F)F)nc1 (centres unmarked) [Example 40, N-methyl-3-(quinolin-5-yloxy)-3-(6-(trifluoromethyl)pyridin-3-yl)propan-1-amine] | ≥ 3000
23 | CN(C)CCC(Oc1cccc2cnccc12)c1cccs1 (centres unmarked) [Example 43, 3-(isoquinolin-5-yloxy)-N,N-dimethyl-3-(thiophen-2-yl)propan-1-amine] | 500 to 3000
24 | CNCC[C@H](Oc1ccc2cnccc2c1)c1cccs1 [Example 55, (S)-3-(isoquinolin-6-yloxy)-N-methyl-3-(thiophen-2-yl)propan-1-amine] | 500 to 3000
25 | CNCCC(Oc1cccc2ncccc12)c1ccsc1 (centres unmarked) [Example 57, N-methyl-3-(quinolin-5-yloxy)-3-(thiophen-3-yl)propan-1-amine] | 100 to 500

Row | Compound | Ki [nM]
26 | CNCC[C@@H](Oc1cccc2c(C)nccc12)c1cccs1 [Example 59, (R)-N-methyl-3-((1-methylisoquinolin-5-yl)oxy)-3-(thiophen-2-yl)propan-1-amine] | < 100
27 | CNCC[C@@H](Oc1cccc2ncccc12)c1ccsc1 [Example 63, (R)-N-methyl-3-(quinolin-5-yloxy)-3-(thiophen-3-yl)propan-1-amine] | 100 to 500
28 | CNCC[C@H](Oc1cccc2ccnc(C)c12)c1cccs1 [Example 64, (S)-N-methyl-3-((1-methylisoquinolin-8-yl)oxy)-3-(thiophen-2-yl)propan-1-amine] | ≥ 3000
29 | CNCC[C@@H](Oc1cccc2nc(C)cc(C)c12)c1cccs1 [Example 66, (R)-3-((2,4-dimethylquinolin-5-yl)oxy)-N-methyl-3-(thiophen-2-yl)propan-1-amine] | < 100
30 | CNCCC(Oc1cccc2ccncc12)c1nccs1 (centres unmarked) [Example 70, 3-(Isoquinolin-8-yloxy)-N-methyl-3-(thiazol-2-yl)propan-1-amine] | ≥ 3000
31 | CNCCC(Oc1ccc2cccnc2c1)c1cccs1 (centres unmarked) [Example 73, N-methyl-3-(quinolin-7-yloxy)-3-(thiophen-2-yl)propan-1-amine] | 500 to 3000
32 | CNCCC(Oc1cccc2c(C#N)nccc12)c1cccs1 (centres unmarked) [Example 75, 5-(3-(Methylamino)-1-(thiophen-2-yl)propoxy)isoquinoline-1-carbonitrile] | 100 to 500
33 | CNCC[C@H](Oc1cccc2ncccc12)c1nccs1 [Example 76, (S)—N-Methyl-3-(quinolin-5-yloxy)-3-(thiazol-2-yl)propan-1-amine] | 100 to 500
34 | CNCC[C@@H](Oc1cccc2ncccc12)c1nccs1 [Example 77, (R)—N-methyl-3-(quinolin-5-yloxy)-3-(thiazol-2-yl)propan-1-amine] | 500 to 3000
35 | CNCC[C@H](Oc1cccc2ccncc12)c1ccc(F)s1 [Example 80, (S)-3-(5-Fluorothiophen-2-yl)-3-(isoquinolin-8-yloxy)-N-methylpropan-1-amine] | 500 to 3000
36 | CCNCC[C@@H](Oc1cccc2cnccc12)c1cccs1 [Example 88, (R)-N-ethyl-3-(isoquinolin-5-yloxy)-3-(thiophen-2-yl)propan-1-amine] | 100 to 500
37 | CCNCC[C@@H](Oc1cccc2c(C#N)nccc12)c1cccs1 [Example 89, (R)-5-(3-(ethylamino)-1-(thiophen-2-yl)propoxy)isoquinoline-1-carbonitrile] | < 100
38 | CCNCC[C@H](Oc1cccc2ncccc12)c1cccs1 [Example 90, (S)-N-ethyl-3-(quinolin-5-yloxy)-3-(thiophen-2-yl)propan-1-amine] | 100 to 500
39 | CCNCC[C@H](Oc1cccc2c(C#N)nccc12)c1cccs1 [Example 91, (S)-5-(3-(ethylamino)-1-(thiophen-2-yl)propoxy)isoquinoline-1-carbonitrile] | 100 to 500
40 | CCNCC[C@H](Oc1cccc2cnccc12)c1cccs1 [Example 92, (S)-N-ethyl-3-(isoquinolin-5-yloxy)-3-(thiophen-2-yl)propan-1-amine] | ≥ 3000
41 | CCNCC[C@@H](Oc1cccc2ncccc12)c1cccs1 [Example 93, (R)-N-ethyl-3-(quinolin-5-yloxy)-3-(thiophen-2-yl)propan-1-amine] | 100 to 500
42 | CNCC[C@H](Oc1cnc2ccccc2c1)c1cccs1 [Example 95, (S)-N-methyl-3-(quinolin-3-yloxy)-3-(thiophen-2-yl)propan-1-amine] | ≥ 3000

Same assay, conditions: Table 2, dual compounds, human α2δ-1 enriched membranes, read-out: Ki (nM) alpha2delta Hum

Row | Compound | Ki [nM]
43 | CNCC[C@H](Oc1cccc2ccncc12)c1cccs1 (stereo in doubt) [Example 12, 3-(isoquinolin-8-yloxy)-N-methyl-3-(thiophen-2-yl)propan-1-amine] | 100 to 500
44 | CNCCC(Oc1cccc2cccnc12)c1cccs1 (centres unmarked) [Example 1, N-Methyl-3-(quinolin-8-yloxy)-3-(thiophen-2-yl)propan-1-amine] | ≥ 3000
45 | CNCCC(Oc1cccc2ncccc12)c1cccs1 (centres unmarked) [Example 2, N-methyl-3-(quinolin-5-yloxy)-3-(thiophen-2-yl)propan-1-amine] | 100 to 500
46 | CNCCC(Oc1cccc2cnccc12)c1cccs1 (centres unmarked) [Example 3, 3-(isoquinolin-5-yloxy)-N-methyl-3-(thiophen-2-yl)propan-1-amine] | 100 to 500
47 | CNCC[C@H](Oc1cccc2ncccc12)c1cccs1 [Example 9, (S)-N-methyl-3-(quinolin-5-yloxy)-3-(thiophen-2-yl)propan-1-amine] | < 100
48 | CNCC[C@H](Oc1cccc2ccncc12)c1cccs1 [Example 10, (S)-3-(isoquinolin-8-yloxy)-N-methyl-3-(thiophen-2-yl)propan-1-amine] | ≥ 3000
49 | CNCC[C@H](Oc1cccc2cnccc12)c1cccs1 [Example 11, (S)-3-(isoquinolin-5-yloxy)-N-methyl-3-(thiophen-2-yl)propan-1-amine] | ≥ 3000
50 | CNCC[C@@H](Oc1cccc2ccncc12)c1cccs1 [Example 13, (R)-3-(isoquinolin-8-yloxy)-N-methyl-3-(thiophen-2-yl)propan-1-amine] | 100 to 500
